Assay results taken from patent publication US5478864A, “Method for disinfection using a 1,n-bis(N^5 -trifluoromethyl-phenyl-N^1 -biguanido)-alkane” (Mitsubishi Materials Corp., priority 1991, dated 1995).
Converted amounts (≈) assume the structure as drawn. Where two headings read alike, the source gives them in different places.

Tests used:
[1] = test system: Achromobacter xylosoxidans RIMD 0101001; assay: minimum growth inhibition concentration, agar dilution; assay type: cell-based; conditions: RIMD0101001, Mueller-Hinton agar, digluconate
Protocol: (§1) Germicidal activity of the compound prepared in Example 1 (Compound I) was evaluated by the minimum growth inhibition concentration method (based on the standard method stipulated by Japan Society of Chemotherapy) and the phenol coefficient method.
(§2) A portion of the digluconate salt of the compound of Example 1 was dissolved in water and the solution was heated to dryness on a water bath. The dried salt was dissolved in acetic acid (potentiometric titration grade) and the concentration thereof was determined by potentiometric titration using a perchloric acid solution. The gluconate acid salt solution, whose concentration was thus determined, was diluted to predetermined concentrations with sterilized water. Each 1 ml of the solution of each concentration was placed in a Petri dish, 9 ml of Mueller-Hinton agar (supplied by Difco) was added thereto and well mixed. Thus sensitivity test media were prepared. The concentrations of the compound were 200 μg/ml and 2^n times wherein (n=-8 to 2). Separately, microorganism strains indicated in Table 1 were subcultured in propagation media (using Mueller-Hinton broth supplied by Difco) at 37° C. for 24 hours. The microorganism concentration was adjusted to 10^6 /ml. The thus obtained cultures were respectively inoculated on a series of sensitivity measuring culture media using an inoculation rod. […] The results are shown in Table 1 together with the result on chlorhexidine as a control.
(§3) Disinfecting effect of the above-prepared compounds was tested by measurement of minimum growth inhibition concentration and by the test for immediate effect in the same manner as in Example 3.

[2] = test system: Alcaligenes faecalis IPO 13111; assay: as above; assay type: cell-based; conditions: IPO13111, Mueller-Hinton agar, digluconate
Protocol: as §1, §2, §3

Escherichia coli IID 861 [3] = assay: as above; assay type: cell-based
Protocol: as §1, §2, §3

[4] = test system: Escherichia coli NIHJ JC-2; assay: as above; assay type: cell-based
Protocol: as §1, §2, §3

[5] = test system: Flavobacterium meningosepticum RIMD 0614002; assay: as above; assay type: cell-based; conditions: Elizabethkingia meningoseptica, RIMD0614002; Mueller-Hinton agar; digluconate
Protocol: as §1, §2, §3

[6] = test system: Klebsiella pneumoniae IID 865; assay: as above; assay type: cell-based
Protocol: as §1, §2, §3

Proteus vulgaris IID 874 = assay: as above; assay type: cell-based; conditions: IID874, Mueller-Hinton agar, digluconate
Protocol: as §1, §2, §3

[7] = test system: Pseudomonas aerugimosa (clinically collected); assay: as above; assay type: cell-based; conditions: Mueller-Hinton agar, digluconate
Protocol: as §1, §2, §3

[8] = test system: Pseudomonas cepacia (collected Chiba Univ.); assay: as above; assay type: cell-based; conditions: Burkholderia cepacia, Mueller-Hinton agar, digluconate
Protocol: as §1, §2, §3

[9] = test system: Staphylococcus epidermis IID 866; assay: as above; assay type: cell-based
Protocol: as §1, §2, §3

Escherichia coli IID 951 = assay: as above; assay type: cell-based
Protocol: as §1, §2
(§4) Compounds of formula I, wherein the trifluoromethyl group is located at the p-position and n is 2, 3, 5, 8 and 11, were prepared starting from ethylene diamine dichloride, 1,3-propane diamine dichloride, 1,5-pentane diamine dichloride, 1,8-octane diamine dichloride or 1,11-undecane diamine dichloride, sodium dicyanamide and 4-trifluoromethyl aniline hydrochloride in accordance with the procedures as described above and minimum growth inhibition concentration (MIC) was determined in the same manner as above.
as §3
(§5) Compounds of formula I, wherein the trifluoromethyl group is located at the m-position and n is 2, 3, 5 and 8, 11 were prepared starting from ethylene diamine dihydrochloride, 1,3-propane diamine dihydrochloride, 1,5-pentane diamine dihydrochloride, 1,8-octane diamine dihydrochloride or 1,11-undecane diamine dihydrochloride, sodium dicyanamide and 3-trifluoromethylaniline hydrochloride in accordance with the procedures of Example 4 and germicidal activity thereof were determined in the same manner.

[10] = test system: Pseudomonas aeruginosa IID 1042; assay: as above; assay type: cell-based; conditions: Pseudomonas aeruginosa, IID1042, Mueller-Hinton agar, read-out: MIC
Protocol: as §1, §2, §4, §3, §5

[11] = test system: Serratia marcescens IID 602; assay: as above; assay type: cell-based
Protocol: as §1, §2, §4, §3, §5

[12] = test system: Staphylococcus aureus FDA 209-P; assay: as above; assay type: cell-based; conditions: FDA209, Mueller-Hinton agar
Protocol: as §1, §2, §4, §3, §5

[13] = test system: Staphylococcus aureus (clin'ly col'ted MRSA); assay: minimum growth inhibition concentration, agar dilution (first MRSA line); assay type: cell-based
Protocol: as §1, §2, §3

[14] = test system: Staphylococcus aureus (clin'ly col'ted MRSA); assay: minimum growth inhibition concentration, agar dilution (second MRSA line); assay type: cell-based; conditions: Mueller-Hinton agar, digluconate, clinically collected MRSA
Protocol: as §1, §2, §3

Escherichia coli IID 861 [15] = assay: test for immediate effect (phenol coefficient method); assay type: cell-based; conditions: of three runs, conc. 0.001%, 20° C.
Protocol: (§6) Immediate effect of this compound was evaluated in accordance with the phenol coefficient method described in "Directions for Hygienic Tests" compiled by the Ministry of Health and Welfare of Japan. The method is as follows. (1) Culture medium Each 10 ml of the bouillon described below was taken into test tubes and they were sterilized with high pressure steam at 120° C. for 20 minutes. (2) Test method Diluted solutions of a series of concentrations of the sample compound were prepared for each of microorganisms listed in Table 2. Each 10 ml of the solutions was put into an appraisal test tube and the test tubes were placed in a thermostat bath kept at 20° C. Each microorganism was subcultured in the above described bouillon medium for testing disinfectants for three generations (37° C. for 48 hours). Each 1 ml of each culture was placed in each of the above-described series of appraisal test tubes and well mixed. After 2.5, 5, 10 and 15 minutes, 0.1 ml of the content of each appraisal test tube was taken and inoculated onto each portion of the bouillon medium for testing disinfectants. […] Each test was carried out three times. Immediate effect of disinfectants was compared by number of test runs in which microorganism growth was observed. […]

[16] = test system: Pseudomonas aeruginosa IID 1042; assay: as above; assay type: cell-based; conditions: of three runs, conc. 0.03%, 20° C.
Protocol: as §6

[17] = test system: Staphylococcus aureus FDA 209-P; assay: as above; assay type: cell-based; conditions: of three runs, conc. 0.0005%, 20° C.
Protocol: as §6

[18] = test system: some Gram-negative bacteria, especially Pyocyaneus bacilli; conditions: cited from earlier work
[19] = administered to mucous membranes in a conventionally employed concentration; cited from earlier work
[20] = gluconate salt; cited from earlier work
general bacteria = conditions: cited from earlier work
other microorganisms = assay: minimum growth inhibition concentration, other microorganisms of Table 1; assay type: cell-based; conditions: against other microorganisms
Protocol: as §1
A portion of the digluconate salt of the compound of Example 1 was dissolved in water and the solution was heated to dryness on a water bath. The dried salt was dissolved in acetic acid (potentiometric titration grade) and the concentration thereof was determined by potentiometric titration using a perchloric acid solution. The gluconate acid salt solution, whose concentration was thus determined, was diluted to predetermined concentrations with sterilized water. Each 1 ml of the solution of each concentration was placed in a Petri dish, 9 ml of Mueller-Hinton agar (supplied by Difco) was added thereto and well mixed. Thus sensitivity test media were prepared. The concentrations of the compound were 200 μg/ml and 2^n times wherein (n=-8 to 2). Separately, microorganism strains indicated in Table 1 were subcultured in propagation media (using Mueller-Hinton broth supplied by Difco) at 37° C. for 24 hours. The microorganism concentration was adjusted to 10^6 /ml. The thus obtained cultures were respectively inoculated on a series of sensitivity measuring culture media using an inoculation rod. […]

Row | SMILES | MIC [1] | MIC [2] | MIC [5] | MIC (Proteus vulgaris IID 874) | MIC [7] | MIC [8] | MIC [10] | MIC [12] | MIC [14] | number of test runs in which microorganism growth was observed (Escherichia coli IID 861 [15]; contact time 2.5 min) | number of test runs in which microorganism growth was observed (Escherichia coli IID 861 [15]; contact time 5.0 min) | number of test runs in which microorganism growth was observed (Escherichia coli IID 861 [15]; contact time 10.0 min) | number of test runs in which microorganism growth was observed (Escherichia coli IID 861 [15]; contact time 15.0 min) | number of test runs in which microorganism growth was observed ([16]; contact time 2.5 min) | number of test runs in which microorganism growth was observed ([16]; contact time 5.0 min) | number of test runs in which microorganism growth was observed ([16]; contact time 10.0 min) | number of test runs in which microorganism growth was observed ([16]; contact time 15.0 min) | number of test runs in which microorganism growth was observed ([17]; contact time 2.5 min) | number of test runs in which microorganism growth was observed ([17]; contact time 5.0 min) | number of test runs in which microorganism growth was observed ([17]; contact time 10.0 min) | also measured
1 | [H]/N=C(\N/C(=N/[H])NCCCCCCNC(=N)NC(=N)Nc1ccc(Cl)cc1)Nc1ccc(Cl)cc1 [CHXD, chlorhexidine, reference compound] | 25 µg/mL (≈ 49.5 µM) | 50 µg/mL (≈ 98.9 µM) | 200 µg/mL (≈ 396 µM) | 200 µg/mL (≈ 396 µM) | 100 µg/mL (≈ 198 µM) | 100 µg/mL (≈ 198 µM) | 100 µg/mL (≈ 198 µM) | 0.78 µg/mL (≈ 1.54 µM) | 3.13 µg/mL (≈ 6.19 µM) | 3 | 3 | 3 | 3 | 2 | 1 | 0 | 0 | 3 | 1 | 0 | MIC (Escherichia coli IID 861 [3]; IID861): 1.56 µg/mL (≈ 3.09 µM); MIC ([4]; NIHJJC2): 1.56 µg/mL (≈ 3.09 µM); MIC ([6]; IID865): 6.25 µg/mL (≈ 12.4 µM); MIC ([9]; IID866): 1.56 µg/mL (≈ 3.09 µM); MIC (Escherichia coli IID 951; IID951): 1.56 µg/mL (≈ 3.09 µM); MIC ([11]; IID602): 6.25 µg/mL (≈ 12.4 µM); MIC ([13]; MRSA): 6.25 µg/mL (≈ 12.4 µM); number of test runs in which microorganism growth was observed ([17]; contact time 15.0 min): 0; effect against some Gram-negative bacteria, especially Pyocyaneus bacilli [18]: less effective; shock symptoms [19]: sometimes causes shock symptoms; solubility in water [20]: high solubility in water; disinfecting effect (general bacteria): exhibits disinfecting effect on a wide range of general bacteria
2 | N=C(NCCCCCCNC(=N)NC(=N)Nc1ccc(C(F)(F)F)cc1)NC(=N)Nc1ccc(C(F)(F)F)cc1 [Ex. 1, 1,6-bis(N^5-p-trifluoromethylphenyl-N^1-biguanido)-hexane] | 50 µg/mL (≈ 87.3 µM) | 6.25 µg/mL (≈ 10.9 µM) | 200 µg/mL (≈ 349 µM) | 25 µg/mL (≈ 43.7 µM) | 12.5 µg/mL (≈ 21.8 µM) | 50 µg/mL (≈ 87.3 µM) | 12.5 µg/mL (≈ 21.8 µM) | 1.56 µg/mL (≈ 2.72 µM) | 1.56 µg/mL (≈ 2.72 µM) | 3 | 3 | 2 | 1 | 0 | 0 | 0 | 0 | 0 | 0 | 0 | MIC (Escherichia coli IID 861 [3]; IID861, Mueller-Hinton agar, digluconate, IID 861, read-out: MIC): 3.13 µg/mL (≈ 5.47 µM); MIC ([4]; NIHJJC2, Mueller-Hinton agar, digluconate, NIHJ JC-2, read-out: MIC): 3.13 µg/mL (≈ 5.47 µM); MIC ([6]; IID865, Mueller-Hinton agar, digluconate, read-out: MIC): 3.13 µg/mL (≈ 5.47 µM); MIC ([9]; IID866, Mueller-Hinton agar, digluconate, IID 866, read-out: MIC): 1.56 µg/mL (≈ 2.72 µM); MIC (Escherichia coli IID 951; IID951, Mueller-Hinton agar, IID 951, read-out: MIC): 3.13 µg/mL (≈ 5.47 µM); MIC ([11]; IID602, Mueller-Hinton agar, IID 602, read-out: MIC): 6.25 µg/mL (≈ 10.9 µM); MIC ([13]; Mueller-Hinton agar, digluconate, clinically collected MRSA, first line, read-out: MIC): 6.25 µg/mL (≈ 10.9 µM); number of test runs in which microorganism growth was observed ([17]; contact time 15.0 min): 0; germicidal effect compared with chlorhexidine (other microorganisms): effective at the same level as chlorhexidine
